Tested on: isolated guinea pig ileum
Experiment: Anti-cholinergic activity: acetylcholine-induced contraction of isolated guinea pig ileum
Settings: in words; isolated compounds were tested only on isolated guinea pig ileum
Experimental: Female, virgin guinea pigs weighing around 300 to 350 g, housed under uniform husbandry conditions (temperature 25±1° C.) were used. The animals were starved 24 hours prior to the experiment, only water was provided ad libitum.
The isolated guinea pig ileum was used to study the anti-spasmodic, anti-cholinergic, and anti-arrhythmic activity of the active fractions.
In particular, the five compounds isolated were tested only on isolated guinea pig ileum. The longitudinal ileal muscle from a freshly killed guinea pig was suspended in an organ bath of 10 ml capacity, filled with Tyrode solution, and aerated with air.
All of these compounds were dissolved in 1000 ml of distilled water.
Two to four doses of acetylcholine were added to the bath to obtain uniform amplitude with a contact period of 30 seconds, the contractions of which were recorded on a polygraph. The five compounds isolated were tested in doses of 196 and 392×10^−6 moles per ml of bath concentration.

Structure (SMILES) | biological activity shown by the extract, in purified compounds
C=C(C)[C@@H]1CC[C@]2(CO)CC[C@]3(C)[C@H](CC[C@@H]4[C@@]5(C)CC[C@H](O)C(C)(C)[C@@H]5CC[C@]43C)[C@@H]12 [betulin] | maintained
CCCCCCCCCCCCCCCC(=O)OC [methyl palmitate] | maintained

Source: US6753021B2, “Biologically active chloroform fraction of an extract obtained from a mangrove plant Salvadora persica L” (Council of Scientific & Industrial Research, priority 2001, dated 2004)
